Test results published in US20060009637A1, “Molecules as produced by endothermic chemical reactions with anhydrous D-ribose” (priority 2004, published 2006).
One block for each compound: values may come before it.

Legend:
solubility in water = type: physicochemical; details: for solubility in water: result in words, monohydrate
heart failure = details: people with heart failure; cited from earlier work
[1] = toxicity of the monohydrate of D-ribose

- water needed to dissolve a kilogram of anhydrous D-ribose (solubility in water; per kilogram of anhydrous D-ribose, gives clear translucent amber viscous solution if enough time is allowed): less than 168 grams
SMILES: O=C[C@H](O)[C@H](O)[C@H](O)CO [anhydrous D-ribose, D-ribose]

SMILES: CN(CC(=O)O)C(=N)N [creatine]
- ejection fraction (heart failure): did not improve
- skeletal muscle action (heart failure): increasing both strength and endurance

- solubility in water (solubility in water; listed as H2O-ribose product): exceptionally high
- solubility in water (solubility in water): very soluble in water
SMILES: O.O=C[C@H](O)[C@H](O)[C@H](O)CO [ribose monohydrate, D-ribose monohydrate]
- toxicity [1]: virtually no toxicity
